The values that follow are results of earlier work, collected in paper PMC10675597, “Design, Synthesis, and Antisickling Investigation of a Thiazolidine Prodrug of TD-7 That Prolongs the Duration of Action of Antisickling Aromatic Aldehyde” (Pharmaceutics, 2023).

On the set-up of series [1]: method as in PMID 34657559, PMID 9490025, PMID 10376886, PMID 11154732. The note with it: cited from earlier work.
Details of series [2]: method as in PMID 15180869. The note with it: cited from earlier work.

Each structure is given as a SMILES string.

`O=Cc1ccc(CO)o1` [5-HMF, 5-hydroxymethylfurfural]: the “oral bioavailability (in words)” value in series [1] is given as “low oral bioavailability”.

One may read the Cmax as the highest concentration seen after dosing. With `CCOC(=O)[C@H]1CSC(c2ccc(O)c(OC)c2)N1` (some centres unmarked) [MX-1520], the “oral bioavailability compared to vanillin (in words)” value in series [2] was “much better oral bioavailability”. In series [2] (oral, Sprague-Dawley rats), the Cmax is recorded as 9000 ng/mL; the “Cmax, fold greater than vanillin” value was 4 fold; the “relative bioavailability, fold higher than vanillin” value was 30 fold.

In the case of `CC(C)n1nccc1-c1ncccc1COc1cccc(O)c1C=O` [Voxelotor], the “oral bioavailability (in words)” value in series [1] is “satisfactory oral bioavailability”.

Consider `COc1cc(C=O)ccc1O` [vanillin], for which the “oral bioavailability (in words)” value in series [1] is reported as “low oral bioavailability”. Further, in series [2] (oral, Sprague-Dawley rats), the Cmax is on record as 2000 ng/mL.
